# Reference: patent publication US20240166630A1, “INDOLE DERIVATIVES AS SEROTONERGIC AGENTS USEFUL FOR THE TREATMENT OF DISORDERS RELATED THERETO” (Mindset Pharma Inc., priority 2021, published 2024)
# Where “and” joins values, the source holds several entries; their conditions need not be identical. Equal values may be shown once. Read-outs that look alike come from different tables or passages of the source.
# Tests used:
# [1] = Liver microsomes stability with NADPH, human
# Protocol: (§1) The objective of this study was to estimate in vitro metabolic stability of representative compounds of the application in pooled human and male mouse liver microsomes. The concentrations of parent compounds in reaction systems were evaluated by LC-MS/MS for estimating the stability in pooled human and male mouse liver microsomes. The in vitro intrinsic clearances of test compounds were determined as well.
# (§2) A master solution in the “Incubation Plate” containing phosphate buffer, ultra-pure H2O, MgCl2 solution and liver microsomes was made according to Table 3. The mixture was pre-warmed at 37° C. water bath for 5 minutes.
# (§3) 40 μL of 10 mM NADPH solution was added to each well. The final concentration of NADPH was 1 mM. The negative control samples were prepared by replacing NADPH with 40 μL of ultra-pure H2O. Samples were prepared in duplicate. Negative controls were prepared in singlet.
# (§4) The reaction was started with the addition of 4 μL of 200 μM test compounds or control compounds to each master solution to get the final concentration of 2 μM. This study was performed in duplicate.
# (§5) Aliquots of 50 μL were taken from the reaction solution at 0, 15, 30, 45 and 60 minutes. The reaction solutions were stopped by the addition of 4 volumes of cold methanol with IS (100 nM alprazolam, 200 nM imipramine, 200 nM labetalol and 2 μM ketoprofen). Samples were centrifuged at 3,220 g for 40 minutes. Aliquot of 90 μL of the supernatant was mixed with 90 μL of ultra-pure H2O and then was used for LC-MS/MS analysis.
# (§6) LC/MS analysis was performed for all samples from this study using a Shimadzu liquid chromatograph separation system equipped with degasser DGU-20A5R; solvent delivery unit LC-30AD; system controller SIL-30AC; column oven CTO-30A; CTC Analytics HTC PAL System; Mass spectrometric analysis was performed using an Triple Quad™ 5500 instrument.
# (§7) All calculations were carried out using Microsoft Excel. Peak area ratios of test compound to internal standard (listed in the below table) were determined from extracted ion chromatograms.
# (§8) All calculations were carried out using Microsoft Excel. Peak areas were determined from extracted ion chromatograms. The slope value, k, was determined by linear regression of the natural logarithm of the remaining percentage of the parent drug vs. incubation time curve.
# (§9) The in vitro half-life (in vitro t1/2) was determined from the slope value:
# (§10) Conversion of the in vitro t1/2 (min) into the in vitro intrinsic clearance (in vitro CLint, in μL/min/mg proteins) was done using the following equation (mean of duplicate determinations): […]
# [2] = Liver microsomes stability with NADPH, rat
# [3] = In vivo pharmacokinetics in male Sprague Dawley rats; parameters: species or system rat; conditions: 0.992 mg/kg s.c.; for AUC(0-t): read-out: AUC0-tlast
# Excerpt: Example 13 (I-B-1): In Vivo Assessment of the Pharmacokinetics in Mice and Rats
# 5. PK Analysis • i. Analysis software: Phoenix® WinNonlin® 8.2 (Pharsight, Certara, Mountainview, CA) • ii. Analysis methods: non-compartmental analysis, linear up/log down trapezoidal rule • iii. PK parameters: C0, t1/2, AUC0-tlast. AUC0-∞, CL, Vss, MRT, tmax(po), Cmax(po), F, as appropriate
# [4] = Liver microsomes stability with NADPH, mouse
# Protocol: as §1, §2, §3, §4, §5, §6, §7, §8, §9, §10
# [5] = molecular target: T1, human 5-HT2A (h5-HT2A) receptor (Homo sapiens, UniProt P28223); test: FLIPR assay, human 5-HT2A receptor under agonist mode; type: cell-based
# T1 construct: expressed in transfected cells; kept under G418 and hygromycin B selection
# Protocol: I. Assessment of the Activated Effect of Compounds of Formula I-B Targeting on Human 5-HT2A (h5-HT2A) Receptor Under Agonist Mode:
# 1. The cells were cultured in cell culture medium (DMEM containing 10% FBS, 1× penicillin-streptomycin 300 μg/ml G418 and 100 μg/ml hygromycin B) at 37° C., 5% (v/v) CO2.
# 2. One day before the assays, the cells were detached using TrypLE™ Express and count cells using cell counter.
# 3. 20000 cells/well were seeded in 30 μl/well culture medium to a 384-well cell plate and incubated the cells overnight at 37° C., 5% (v/v) CO2.
# 4. On the assay day, 2×dye solution was prepared following the manual of the FLIPR® Calcium 6 Assay Kit: i. The dye was diluted with assay buffer (20 mM HEPES in 1×HBSS, PH7.4); ii. probenecid was added to the final concentration of 5 mM; iii. Vortexed vigorously for 1-2 minutes.
# 5. Medium was removed from cell plate by flicking the cell plate on towel papers.
# 7. The cell plate was placed on plate shaker, the plate agitated at 600 rpm for 2 minutes. The plate was incubated at 37° C. for 2 hours followed by additional 15-minute incubation at 25° C.
# 8. 3×compound was prepared in assay buffer: a. Reference compounds were diluted to required concentration with DMSO. The compounds were added to a 384-well compound plate; b. Serial dilutions were performed; c. 10 mM test compounds were added to the compound plate, 3-fold serial dilutions were performed. […] 20 μl/well assay buffer was added to the compound plate; f.
# 9. The cell plate, compound plate and tips were placed into FLIPR, 10 μl of 3× compound was transferred to the cell plate per well with FLIPR.
# i. The normalized fluorescence reading (RFU) was calculated as shown follow, while Fmax and Fmin stand for maximum and minimum of calcium signal during defined time window: RFU=Fmax−Fmin
# ii. The percentage activation was calculated by using following equation: […]
# iii. EC50 was calculated by fitting % activation against log of compound concentrations with Hill equation using Xlfit.
# human 5-HT2A = human 5-HT2A (Homo sapiens, UniProt P28223); test: Radioligand binding assay on human 5-HT2A receptor ([3H]-ketanserin)
# Protocol: i. The assay buffer was prepared following the table below;
# iii. Prepared (v/v) DMSO as follows: a. […] The plates were sealed and incubated at 4° C. for 3 hrs;
# iv. Preparation of assay plates: a.
# vi. The plates were sealed and incubated at 27° C. for 90 min.
# T1 sequence (P28223 whole entry): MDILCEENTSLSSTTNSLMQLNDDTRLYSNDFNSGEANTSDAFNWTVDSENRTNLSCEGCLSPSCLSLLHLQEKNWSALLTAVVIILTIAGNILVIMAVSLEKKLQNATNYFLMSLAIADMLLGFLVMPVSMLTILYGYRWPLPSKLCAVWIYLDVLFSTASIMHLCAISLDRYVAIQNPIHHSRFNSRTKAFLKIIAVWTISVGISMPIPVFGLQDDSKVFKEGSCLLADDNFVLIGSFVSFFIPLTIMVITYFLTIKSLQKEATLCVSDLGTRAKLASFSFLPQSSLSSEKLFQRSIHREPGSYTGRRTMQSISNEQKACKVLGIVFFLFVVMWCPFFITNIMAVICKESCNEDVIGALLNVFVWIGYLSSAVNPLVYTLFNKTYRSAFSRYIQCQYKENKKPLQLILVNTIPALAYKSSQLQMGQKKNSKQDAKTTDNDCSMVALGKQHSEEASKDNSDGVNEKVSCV
# human 5-HT2A, sequence (P28223 whole entry): as above
compound,measurement,setting,value
"[2H]C([2H])(c1c[nH]c2ccccc12)[C@H]1CCCN1C([2H])([2H])[2H] [I-B-1, (R)-3-((1-(methyl-d3)pyrrolidin-2-yl)methyl-d2)-1H-indole]",Remaining Percentage (%) after 60 min Human,"[1]; human liver microsomes, with NADPH, 2 μM",82.74%
same,half-life at 2 μM,"[1]; human, microsomes",3.66 h
same,microsomal CLint at 2 μM,"[1]; human, microsomes",6.32 µL/min/mg
same,Remaining Percentage (%) after 60 min Rat,"[2]; rat liver microsomes, with NADPH, 2 μM",32.40%
same,half-life at 2 μM,"[2]; rat, microsomes",0.615 h
same,microsomal CLint at 2 μM,"[2]; rat, microsomes",37.6 µL/min/mg
same,F,[3]; Mean ± SD,133 ± 10.1%
same,AUC0-tlast,[3]; individual animals,137 ng·h/mL and 133 ng·h/mL
same,AUC(0-inf),[3]; individual animals,154 ng·h/mL and 133 ng·h/mL
same,Apparent t1/2,[3]; individual animals,0.990 h and 26.6^a h and 1.18 h
same,Cmax,[3]; individual animals,140 ng/mL and 137 ng/mL and 64.6 ng/mL
same,F,[3]; individual animals,132% and 144% and 124%
same,MRT0-inf,[3]; individual animals,1.07 h and 9.03 h and 1.40 h
same,tmax,[3]; individual animals,0.0833 h and 1.00 h
same,AUC(0-inf),"[3]; male, Sprague Dawley, rat, plasma, sc, 0.992 mg/kg, Mean ± SD, read-out: AUC0-inf",143 ± 10.8 ng·h/mL
same,AUC(0-t),"[3]; male, Sprague Dawley, rat, plasma, sc, 0.992 mg/kg, Mean ± SD",136 ± 3.91 ng·h/mL
same,Cmax,"[3]; male, Sprague Dawley, rat, plasma, sc, 0.992 mg/kg, Mean ± SD, read-out: Cmax",114 ± 42.7 ng/mL
same,MRT inf,"[3]; male, Sprague Dawley, rat, plasma, sc, 0.992 mg/kg, Mean ± SD, read-out: MRT0-inf",3.83 ± 4.5 h
same,tmax,"[3]; male, Sprague Dawley, rat, plasma, sc, 0.992 mg/kg, Mean ± SD, read-out: tmax",0.25 h
same,AUC(0-inf),"[3]; male, Sprague Dawley, rat, plasma, sc, 0.992 mg/kg, individual animals, read-out: AUC0-inf",141 ng·h/mL
same,AUC(0-t),"[3]; male, Sprague Dawley, rat, plasma, sc, 0.992 mg/kg, individual animals",140 ng·h/mL
same,half-life,"[3]; male, Sprague Dawley, rat, plasma, sc, 0.992 mg/kg, mean (n = 2), outlier excluded, read-out: Apparent t1/2 (converted)",1.09 h
same,half-life at 2 μM,"[4]; male, mouse, microsomes",1.16 h
same,microsomal CLint at 2 μM,"[4]; male, mouse, microsomes",19.9 µL/min/mg
same,Remaining Percentage (%) after 60 min Mouse,"[4]; mouse liver microsomes, with NADPH, 2 μM",55.00%
same,EC50,[5],100 to 1000 nM
same,IC50,human 5-HT2A,< 500 nM
